“And” between values parts separate entries of the source, which are not always exact repeats. Identical values can stand only once. Like-named read-outs stand apart in the source and are kept apart here. Marks after values point to notes of the source that are not given here.
Columns and labels:
Aβ42 [1] = target: T1, Aβ42 (Homo sapiens, UniProt P05067); set-up: method as in di Pietro et al. 38; details: at 10 µM; ref di Pietro et al. 38; cited from earlier work
T1 construct: expressed in transfected cells; host or cells: E. coli BL21 (DE3) with pET28a-Aβ42, IPTG-induced
T1 sequence (P05067 672-713): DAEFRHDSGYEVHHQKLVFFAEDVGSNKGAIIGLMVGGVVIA

tau [2] = target: T2, tau (Homo sapiens, UniProt P10636); set-up: method as in di Pietro et al. 38; details: at 10 µM; ref di Pietro et al. 38; cited from earlier work
T2 construct: expressed in transfected cells; host or cells: E. coli BL21 (DE3) with pTARA (T7 RNA polymerase under pBAD) and pRKT42
T2 sequence (P10636 other isoform, or with tags, fused parts or gaps): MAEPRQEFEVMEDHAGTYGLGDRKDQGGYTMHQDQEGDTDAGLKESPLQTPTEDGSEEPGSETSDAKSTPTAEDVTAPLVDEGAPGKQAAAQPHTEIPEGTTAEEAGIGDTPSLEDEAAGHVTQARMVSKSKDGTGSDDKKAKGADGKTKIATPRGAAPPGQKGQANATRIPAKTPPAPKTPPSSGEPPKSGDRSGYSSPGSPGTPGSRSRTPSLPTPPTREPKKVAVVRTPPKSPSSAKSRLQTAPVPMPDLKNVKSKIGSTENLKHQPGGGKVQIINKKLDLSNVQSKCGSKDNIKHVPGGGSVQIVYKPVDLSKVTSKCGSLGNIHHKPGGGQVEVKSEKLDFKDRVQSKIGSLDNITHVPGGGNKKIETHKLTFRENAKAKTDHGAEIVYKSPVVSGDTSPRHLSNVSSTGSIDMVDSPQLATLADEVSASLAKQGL

tau [3] = target: T2, tau; experiment: In cellulo tau aggregation inhibition, Thioflavin S fluorescence in E. coli overexpressing tau; format: cell-based, Escherichia coli; details: at 10 µM; mean of three experiments ± SEM
Excerpt: (§1) We screened multifunctional ligands from our in-house library for their anti-aggregating activity against Aβ and tau in the whole bacterial cells using the Thioflavin S (ThS) fluorescence assay. Bacterial cells overexpressing different proteins provide simple models that can be easily employed to monitor the mechanisms of protein aggregation related to a variety of conformational diseases[36]^,[37]. In our assay, E. coli system has been implemented to study the effect of potential Aβ42 and tau aggregation inhibitors within intact cells. The advantage of the test over in vitro tests is the fact that it considers the complexity of the cellular environment that plays a crucial role in tuning protein aggregation. This assay has been validated and successfully applied to assess the anti-aggregating properties of diverse chemical structures. Previously investigated tetrahydrobenzo[h][1,6] naphthyridine-6-chlorotacrine hybrid DP-128 was used as a reference compound[38]^,[39].
(§2) The assays were conducted according to the procedure described previously. All general chemicals were purchased from Sigma-Aldrich (St. Louis, MO) . Reagents for bacterial media were purchased from Conda (Sevilla, Spain). M9 minimal medium for 100 mL: 10 mL of salts 10× (0.68 g of Na2HPO4, 0.30 g of KH2PO4, 0.05 g of NaCl, 0.10 g of NH4Cl), 0.2 mL of 1 M MgSO4, 0.2 mL of 50 mM CaCl2, 2.5 mL of 20% glucose, and 87.1 mL of H2O.
(§3) E. coli competent cells BL21 (DE3) were transformed with the pET28a vector (Novagen, Inc., Madison, WI) carrying the DNA sequence of Aβ42 or with pTARA containing the RNA polymerase gene of T7 phage (T7RP) under the control of the promoter pBAD, then with pRKT42 vector encoding four repeats of tau protein in two inserts. For overnight culture preparation, 10 ml of M9 minimal medium containing 50 μg/mL of kanamycin (Aβ42) or 50 μg/mL of ampicillin and 12.5 μg/mL of chloramphenicol (tau) were inoculated with a colony of BL21 (DE3) bearing the plasmid Aβ42 or tau plasmids to be expressed at 37 °C and 180 rpm using an incubator shaker (Ovan, Barcelona, Spain). After overnight growth, the OD600 was usually 2 − 2.5. For expression of Aβ42 peptide/tau protein, 200 μL of overnight culture were transferred into Eppendorf tubes of 1.5 mL containing 790 μL of fresh M9 minimal medium with 50 μg/mL of kanamycin1 mM of isopropyl 1-thio-β-D-galactopyranoside (IPTG) (Aβ42) or 50 μg/mL of ampicillin, 12.5 μg/mL of chloramphenicol, 0.25% of arabinose (tau), and 25 μM of ThS and 10 μL of reference, tested compounds (1 mM in DMSO, final concentration: 10 μM) or DMSO. The samples were grown for 24 h at 37 °C and 180 rpm using an incubator shaker (Ovan). The samples with DMSO were prepared as a negative control (maximum level of Aβ42/tau, 0% of inhibition). In the positive controls, the M9 medium without IPTG (minimal level of Aβ42) or arabinose (minimal level of tau) was used. For absorbance and fluorescence determination, 200 μL of each Eppendorf tube was transferred in triplicate into 96-well plate. Finally, the fluorescence emission at 520 nm, when exciting at 440 nm and absorbance at 600 nm was recorded using the multi-mode microplate reader (Beckman Counter, Brea, CA). The absorbance at 600 nm (OD600) of these samples was assessed to check the bacterial growth and potential intrinsic toxicity of the tested compounds. Final data are the average of three independent experiments. DP-128 was used as a reference compound[38].

Aβ42 [4] = target: T1, Aβ42; experiment: In cellulo Aβ42 aggregation inhibition, Thioflavin S fluorescence in E. coli overexpressing Aβ42; format: cell-based, Escherichia coli; details: at 10 µM; mean of three experiments ± SEM
Excerpt: as §1, §2, §3

human BACE1 = target: T3, human BACE1 (Homo sapiens, UniProt P56817); experiment: In vitro inhibition of human BACE1, FRET assay; format: biochemical; details: for IC50: mean of three experiments ± SEM, read-out: hBACE1 IC50; for hBACE1 % inhibition: at 10 µM per table footnote b, mean of three experiments ± SD; for BACE1 percentage of inhibition: screening concentration 50 µM
T3 construct: purchased Panvera, Madison, WI (BACE1 FRET Assay Kit); host or cells: baculovirus-expressed
T3 sequence (P56817 46-501): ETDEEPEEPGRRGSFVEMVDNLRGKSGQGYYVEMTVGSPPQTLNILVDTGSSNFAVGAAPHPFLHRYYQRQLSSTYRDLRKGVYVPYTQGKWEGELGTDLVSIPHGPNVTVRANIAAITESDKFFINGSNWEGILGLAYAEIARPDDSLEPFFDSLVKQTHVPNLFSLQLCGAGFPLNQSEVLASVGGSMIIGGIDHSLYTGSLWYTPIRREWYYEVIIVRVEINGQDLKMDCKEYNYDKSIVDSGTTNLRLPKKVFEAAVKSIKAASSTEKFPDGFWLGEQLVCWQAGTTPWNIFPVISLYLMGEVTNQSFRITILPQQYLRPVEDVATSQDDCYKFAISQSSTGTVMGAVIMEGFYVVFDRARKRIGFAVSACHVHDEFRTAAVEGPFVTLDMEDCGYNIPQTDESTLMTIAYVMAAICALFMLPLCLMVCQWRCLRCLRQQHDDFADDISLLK
Protocol: To further explore the multifunctional profile of the ligands, we screened them for their inhibitory activity against human BACE1 using spectrofluorometric assay (fluorescence resonance energy transfer (FRET)-based). […] Therefore, BACE1 inhibitors are now being tested in earlier stages of AD and in asymptomatic subjects at risk of AD, with the hope of blocking the disease process before it becomes irreversible.
BACE1 FRET Assay Kit (Panvera, Madison, WI) was performed according to the manufacturer’s protocol with small modifications. The Kit includes purified baculovirus-expressed BACE1 and specific peptide substrate (Rh-[…]-quencher), based on the “Swedish” mutant of APP. The analysis was carried, using 384-well black microplates and a microplate reader (EnSpire Multimode; PerkinElmer, Waltham, MA). The wavelength was optimised for the 553 nm excitation and 576 nm emission. Stock solutions of all test compounds were prepared in DMSO and further diluted with assay buffer (50 mM sodium acetate; pH 4.5). In the first step, 10 μL of BACE1 substrate was mixed with 10 μL of test compound (or assay buffer; i.e. blank sample), then 10 μL of the enzyme (1 U/mL) was added to start the reaction. After 60 min of incubation at 25 °C, 10 μL of stop solution (2.5 M sodium acetate) was applied to stop the reaction. The fluorescence signal was read at 576 nm. Percent of inhibition was calculated from [1 − (S60 − S0)/(C60 − C0)] × 100, where S0 and S60 are fluorescence intensities of the test sample (enzyme, substrate, test compound) at the beginning of the reaction and after 60 min, respectively, while C0 and C60 are analogical fluorescence intensities of the blank sample (enzyme, substrate, buffer). […] Each compound was analysed in triplicate. Commercially available BACE1 Inhibitor IV (Calbiochem, Merck; Nottingham, UK) was used as the reference compound. The IC50 values were calculated using nonlinear regression (GraphPad Prism 5 [GraphPad Software, San Diego, CA, 5.00]) by plotting the residual enzyme activities against the applied inhibitor concentration.

eqBuChE = details: read-out: eqBuChE IC50; cited from earlier work
hAChE = details: read-out: hAChE IC50; cited from earlier work
h5-HT6 = target: h5-HT6; set-up: method as in PMID 27560283, PMID 29384656; details: read-out: 5-HT6 Ki; cited from earlier work
SH-SY5Y cells = experiment: Cytotoxicity, MTS cell viability assay, SH-SY5Y; format: cell-based, human; details: 24 h, read-out: LC50 (cell viability, MTS)
Protocol: (§4) The human liver carcinoma HepG2 cell line was purchased from American Type Culture Collection (LGC Standards, UK). The human neuroblastoma SH-SY5Y cell line was purchased from American Type Culture Collection (CRL-2266, Manassas, VA). The cells were grown in Advanced Dulbecco’s modified Eagle’s medium (Sigma, St. Louis, MO) supplemented with 10% foetal bovine serum (FBS) (HyClone, Logan, UT), 2 mM L-glutamine, 50 U/mL penicillin and 50 μg/mL streptomycin (Sigma, St. Louis, MO) in a humidified atmosphere of 95% air and 5% CO2 at 37 °C, and grown to 80% confluence. Compound 3 was prepared as a stock solution of 20 mM in DMSO and was used at concentrations of 1–100 µM in case of HepG2 treatment, and at concentrations of 0.25–5 µM in case of SH-SY5Y treatment.
(§5) HepG2 and SH-SY5Y cells were seeded in 96-well plates (2 × 10^4/well) and assessed by MTS ([3–(4,5-dimethylthiazol-2-yl)-5–(3-carboxymethoxyphenyl)-2–(4-sulfophenyl)-2H-tetrazolium, inner salt) assay for their response to compound 3. Cells were treated as described above, and cell viability was assessed after 24 h using the CellTiter 96® Aqueous One Solution Cell Proliferation Assay (Promega, Madison, WI), following the manufacturer’s instructions. Absorbance was measured with an automatic microplate reader (Tecan Safire, Switzerland) at a wavelength of 492 nm.

HepG2 cells = experiment: Cytotoxicity, MTS cell viability assay, HepG2; format: cell-based, human; details: 24 h, read-out: LC50 (cell viability, MTS)
Protocol: as §4, §5

Row | SMILES | In cellulo tau inhibition % (tau [3]) | In cellulo Aβ42 inhibition % (Aβ42 [4]) | IC50 (human BACE1) | other results
1 | O=C(NCCCCCCCCNc1c2c(nc3cc(Cl)ccc13)CCCC2)c1ccc2nc(-c3ccc(Cl)cc3)c3c(c2c1)NCCC3 [DP-128] |  |  |  | In cellulo Aβ42 inhibition % (Aβ42 [1]): 77.5 ± 0.9^d %; In cellulo tau inhibition % (tau [2]): 68.7 ± 0.5^d %
2 | c1ccc(Cn2ccc3c(N4CCN(CCNc5c6c(nc7ccccc57)CCCC6)CC4)cccc32)cc1 [Compound 17] | 59% and 58.6 ± 4.5% | 56% and 55.7 ± 2.8% | 4 µM and 4.09 µM | IC50 (eqBuChE): 0.005 µM; IC50 (hAChE): 0.026 µM
3 | Cc1c(OCc2ccccc2)cccc1N1CCN(CCCCCNCc2ccccc2)CC1 [Compound 33] | 55.8 ± 5.3% | 29.0 ± 4.5% |  | hBACE1 % inhibition (human BACE1): 31.5% ± 1.1; BACE1 percentage of inhibition (human BACE1): about 30%
4 | c1ccc(CNCCCCN2CCN(c3cccc4c3ccn4Cc3ccccc3)CC2)cc1 [Compound 21] | 41.3 ± 6.3% | 12.2 ± 4.1% | 21.9 ± 1.16 µM | 
5 | c1ccc(Cn2ccc3c(N4CCN(CCCCCCNc5c6c(nc7ccccc57)CCCC6)CC4)cccc32)cc1 [Compound 20] | 64.0 ± 5.1% | 66.9 ± 3.9% |  | hBACE1 % inhibition (human BACE1): 62.1% ± 5.8; BACE1 percentage of inhibition (human BACE1): 62%
6 | O=S(=O)(c1ccccc1)n1ccc2c(N3CCN(CCCCCCNc4c5c(nc6ccccc46)CCCC5)CC3)cccc21 [Compound 3] | 38% and 37.6 ± 2.4% | 30% and 29.7 ± 4.0% | 7.3 µM and 7.31 µM | Ki (h5-HT6): 0.002 µM; IC50 (eqBuChE): 0.008 µM; IC50 (hAChE): 0.013 µM; CC50 (SH-SY5Y cells): 1 µM; CC50 (HepG2 cells): 6.4 µM
7 | O=S(=O)(c1ccccc1)n1ccc2c(N3CCN(CCCNCc4ccccc4)CC3)cccc21 [Compound 7] | 39.7 ± 3.8% | 48.3 ± 4.2% | 5.82 ± 0.34 µM | 

Source: publication PMC7594877, “Multidirectional in vitro and in cellulo studies as a tool for identification of multi-target-directed ligands aiming at symptoms and causes of Alzheimer’s disease” (Journal of Enzyme Inhibition and Medicinal Chemistry, 2020)
